Data as given in publication PMC7617869, “Molecular glues that inhibit deubiquitylase activity and inflammatory signaling” (Nature Structural & Molecular Biology, 2025).
Values joined by “and” are separate entries in the source; they are usually repeats but may differ in a detail not shown here. Equal values may be shown once.

Key:
[1] = test system: ISG expression in MCF10A Cas9 cells expressing BRCC45 R137A; assay: MCF10A BRCC45 R137A ISG expression (RT–qPCR); type: cell-based, human; settings: hIFNα2 75 ng/ml, 2.5 μM, 4 h
[2] = test system: ISG expression in MCF10A Cas9 cells expressing BRCC45 WT; assay: MCF10A BRCC45 WT ISG expression (RT–qPCR); type: cell-based, human; settings: hIFNα2 75 ng/ml, 2.5 μM, 4 h
[3] = test system: AMSH* (a STAM2–AMSH fusion); assay: AMSH* IQF DUB activity assay; type: biochemical; settings: for Normalised V0: Fig. 1e, AMSH*
Protocol: (§1) IQF assays were performed in DUB reaction buffer containing 50 mM HEPES–NaOH pH 7.0, 100 mM NaCl, 0.1 mg ml^−1 BSA, 1 mM DTT and 0.03% v/v Brij-35. […] The final concentration of BRISC WT, all BRISC mutants, HsBRISCΔLoop, MmBRISC and DrBRISCΔNΔC was 1 nM. Other enzymes were tested at the following concentrations: 5 nM ARISC (FL), 10 nM CfBRISCΔNΔC, 250 nM AMSH* (ref. [43]), 500 nM USP2 and 1 μM trypsin (Sigma, 9002-07-7). For Michaelis–Menten experiments, 1 nM BRISC with 0–1 μM IQF K63-linked diubiquitin substrate was used. Michaelis–Menten analyses and Lineweaver–Burk plots were calculated using GraphPad Prism (version 9.0).
To assess enzymatic activity, BRISC complexes were diluted to concentrations between 1 nM and 50 nM. […] Then, 20-μl enzyme reactions were carried out in 384-well black flat-bottom low-flange plates (Corning, 35373). DUB activity was measured using IQF K63-linked diubiquitin (LifeSensors, DU6303) at 50 nM. Cleaved diubiquitin was monitored by measuring fluorescence intensity (excitation, 544 nm; emission, 575 nm; dichroic mirror, 560 nm). Fluorescence intensity was measured every minute for 30 min at 30 °C. Fluorescence intensity units were plotted against time to generate a linear reaction progress curve, where the initial velocity (V0) corresponds to the gradient of the curve (typically achieved within 15 min). IC50 values were calculated using the GraphPad Prism (version 9.0) built-in dose–response equation for inhibitor concentration versus response (variable slope).

BRISC = molecular target: T1, BRISC (Homo sapiens, UniProt P46736+Q15018+Q9NXR7); assay: Michaelis–Menten analysis of BRISC inhibition; type: biochemical
T1 construct: made in house; host or cells: Spodoptera frugiperda (Sf9) insect cells, MultiBac
Protocol: as §1

BRISC (FL) = molecular target: T2, BRISC (FL) (Homo sapiens, UniProt P46736+Q15018+Q9NXR7); assay: In-gel deubiquitylation assay, TAMRA-labeled K63-tetraubiquitin, BRISC; type: biochemical; settings: 10 μM or 100 μM inhibitor
T2 construct: full-length BRISC (FL), ARISC (FL); made in house; host or cells: Spodoptera frugiperda Sf9 insect cells (MultiBac)
Protocol: The inhibitor capzimin (Merck) was diluted in 1 mM DTT and incubated for 30 min at room temperature to reduce disulfide bonds required for inhibitor activity. […] DUBs were incubated with 750 nM TAMRA-labeled K63-tetraubiquitin (LifeSensors, SI6304T) for 10 min at 30 °C. Reactions were quenched by adding 2.5 μl of 4× SDS–PAGE loading dye (240 mM Tris-HCl pH 6.8, 40% v/v glycerol, 8% w/v SDS, 0.04% w/v bromophenol blue and 5% v/v β-mercaptoethanol). The samples were resolved on 4–12% NuPAGE Bis–Tris gels (Thermo Fisher Scientific). Gels were scanned using an iBright FL 1500 (Thermo Fisher Scientific) (excitation, 515–545 nm; emission, 568–617 nm; exposure, 500 ms).

O=C(NC1CCNCC1)c1nn(C(=O)c2c(Cl)cccc2Cl)cc1NC(=O)c1c(Cl)cccc1Cl [JMS-175-2]
ISG expression (ISG15, IFIT1, IFIT2, IFITM1, CXCL10) [1]: a reduction in ISG expression was not observed
ISG expression (ISG15, IFIT1, IFIT2, IFITM1, CXCL10) [2]: reduced gene expression for all five ISGs
inhibition of AMSH* [3]: did not inhibit
Normalised V0 ([3]; JMS-175-2 0.02 μM): 0.9388 and 1.234 and 1.0263
Normalised V0 ([3]; JMS-175-2 0.0399999 μM): 1.025 and 1.209 and 1.056
Normalised V0 ([3]; JMS-175-2 0.0599997 μM): 0.9933 and 1.1324 and 1.071
Normalised V0 ([3]; JMS-175-2 0.0799994 μM): 0.9897 and 1.213 and 1.205
Normalised V0 ([3]; JMS-175-2 0.119998 μM): 0.9691 and 1.214 and 1.014
Normalised V0 ([3]; JMS-175-2 0.199996 μM): 1.015 and 1.194 and 1.011
Normalised V0 ([3]; JMS-175-2 0.499975 μM): 0.9952 and 1.163 and 1.175
Normalised V0 ([3]; JMS-175-2 0.799936 μM): 1.012 and 1.167
Normalised V0 ([3]; JMS-175-2 1.25984 μM): 0.9861 and 1.185 and 1.256
Normalised V0 ([3]; JMS-175-2 1.9996 μM): 0.9727 and 1.04 and 1.202
Normalised V0 ([3]; JMS-175-2 3.159 μM): 1.015 and 1.159 and 1.047
Normalised V0 ([3]; JMS-175-2 5.19739 μM): 1.314 and 1.221 and 1.023
Normalised V0 ([3]; JMS-175-2 7.99364 μM): 1.059 and 1.183 and 1.085
Normalised V0 ([3]; JMS-175-2 12.7839 μM): 0.9322 and 1.462 and 1.072
Normalised V0 ([3]; JMS-175-2 19.96 μM): 0.9939 and 1.127 and 1.08
Normalised V0 ([3]; JMS-175-2 31.4999 μM): 1.033 and 1.252 and 1.115
Normalised V0 ([3]; JMS-175-2 50.147 μM): 0.9855 and 1.172 and 0.9587
Normalised V0 ([3]; JMS-175-2 79.7601 μM): 0.8988 and 1.1324 and 1.1315
Normalised V0 ([3]; JMS-175-2 125.99 μM): 0.8758 and 1.102 and 0.8516
Normalised V0 ([3]; JMS-175-2 199.922 μM): 0.8346 and 1.096 and 1.031
Initial velocity (FU/min) (BRISC; di-Ub-TAMRA 31.2 nM, inhibitor 48 nM): 124.7 FU/min and 137.4 FU/min and 146.6 FU/min
Initial velocity (FU/min) (BRISC; di-Ub-TAMRA 31.2 nM, inhibitor 195 nM): 137.4 FU/min and 132.5 FU/min and 144.8 FU/min
Initial velocity (FU/min) (BRISC; di-Ub-TAMRA 31.2 nM, inhibitor 781 nM): 114 FU/min and 123.2 FU/min and 122.2 FU/min
Initial velocity (FU/min) (BRISC; di-Ub-TAMRA 31.2 nM, inhibitor 3.12 μM): 80.48 FU/min and 77.42 FU/min and 88.2 FU/min
Initial velocity (FU/min) (BRISC; di-Ub-TAMRA 31.2 nM, inhibitor 12.5 μM): 62.2 FU/min and 65.87 FU/min and 55.25 FU/min
Initial velocity (FU/min) (BRISC; di-Ub-TAMRA 31.2 nM, inhibitor 50 μM): 31.39 FU/min and 49.47 FU/min and 41.04 FU/min
Initial velocity (FU/min) (BRISC; di-Ub-TAMRA 62.5 nM, inhibitor 48 nM): 222.1 FU/min and 242.3 FU/min and 243.8 FU/min
Initial velocity (FU/min) (BRISC; di-Ub-TAMRA 62.5 nM, inhibitor 195 nM): 205.5 FU/min and 232 FU/min and 265.7 FU/min
Initial velocity (FU/min) (BRISC; di-Ub-TAMRA 62.5 nM, inhibitor 781 nM): 172.4 FU/min and 226.1 FU/min and 228.4 FU/min
Initial velocity (FU/min) (BRISC; di-Ub-TAMRA 62.5 nM, inhibitor 3.12 μM): 160.2 FU/min and 117.4 FU/min and 160.5 FU/min
Initial velocity (FU/min) (BRISC; di-Ub-TAMRA 62.5 nM, inhibitor 12.5 μM): 80.26 FU/min and 123.7 FU/min and 100.7 FU/min
Initial velocity (FU/min) (BRISC; di-Ub-TAMRA 62.5 nM, inhibitor 50 μM): 43.48 FU/min and 66.23 FU/min and 64.63 FU/min
Initial velocity (FU/min) (BRISC; di-Ub-TAMRA 125 nM, inhibitor 48 nM): 476.9 FU/min and 540.8 FU/min and 503.9 FU/min
Initial velocity (FU/min) (BRISC; di-Ub-TAMRA 125 nM, inhibitor 195 nM): 474.4 FU/min and 538.4 FU/min and 481.2 FU/min
Initial velocity (FU/min) (BRISC; di-Ub-TAMRA 125 nM, inhibitor 781 nM): 402.8 FU/min and 468.4 FU/min and 474 FU/min
Initial velocity (FU/min) (BRISC; di-Ub-TAMRA 125 nM, inhibitor 3.12 μM): 310.9 FU/min and 277.7 FU/min and 256.8 FU/min
Initial velocity (FU/min) (BRISC; di-Ub-TAMRA 125 nM, inhibitor 12.5 μM): 183.3 FU/min and 175.6 FU/min and 208.5 FU/min
Initial velocity (FU/min) (BRISC; di-Ub-TAMRA 125 nM, inhibitor 50 μM): 67.12 FU/min and 88.75 FU/min and 84.05 FU/min
Initial velocity (FU/min) (BRISC; di-Ub-TAMRA 250 nM, inhibitor 48 nM): 886 FU/min and 905.7 FU/min and 906.9 FU/min
Initial velocity (FU/min) (BRISC; di-Ub-TAMRA 250 nM, inhibitor 195 nM): 866.4 FU/min and 900.9 FU/min and 960.9 FU/min
Initial velocity (FU/min) (BRISC; di-Ub-TAMRA 250 nM, inhibitor 781 nM): 740.9 FU/min and 834.7 FU/min and 869 FU/min
Initial velocity (FU/min) (BRISC; di-Ub-TAMRA 250 nM, inhibitor 3.12 μM): 573.6 FU/min and 456.6 FU/min and 483.6 FU/min
Initial velocity (FU/min) (BRISC; di-Ub-TAMRA 250 nM, inhibitor 12.5 μM): 283.5 FU/min and 316 FU/min and 354.2 FU/min
Initial velocity (FU/min) (BRISC; di-Ub-TAMRA 250 nM, inhibitor 50 μM): 119.1 FU/min and 114.6 FU/min and 160 FU/min
Initial velocity (FU/min) (BRISC; di-Ub-TAMRA 500 nM, inhibitor 195 nM): 1677 FU/min and 3345 FU/min and 1765 FU/min
Initial velocity (FU/min) (BRISC; di-Ub-TAMRA 500 nM, inhibitor 3.12 μM): 1143 FU/min and 881.4 FU/min and 1578 FU/min
Initial velocity (FU/min) (BRISC; di-Ub-TAMRA 500 nM, inhibitor 12.5 μM): 579 FU/min and 1146 FU/min and 683.3 FU/min
Initial velocity (FU/min) (BRISC; di-Ub-TAMRA 1000 nM, inhibitor 48 nM): 3019 FU/min and 3362 FU/min and 3486 FU/min
Initial velocity (FU/min) (BRISC; di-Ub-TAMRA 1000 nM, inhibitor 195 nM): 3093 FU/min and 3236 FU/min and 3210 FU/min
Initial velocity (FU/min) (BRISC; di-Ub-TAMRA 1000 nM, inhibitor 781 nM): 2371 FU/min and 2828 FU/min and 2787 FU/min
Initial velocity (FU/min) (BRISC; di-Ub-TAMRA 1000 nM, inhibitor 3.12 μM): 1731 FU/min and 1418 FU/min and 1905 FU/min
Initial velocity (FU/min) (BRISC; di-Ub-TAMRA 1000 nM, inhibitor 12.5 μM): 1009 FU/min and 1193 FU/min and 1032 FU/min
Initial velocity (FU/min) (BRISC; di-Ub-TAMRA 1000 nM, inhibitor 50 μM): 371.3 FU/min and 640.2 FU/min and 667.9 FU/min
mode of inhibition (BRISC; enzyme activity at different substrate concentrations): not competitive inhibitors
inhibition of BRISC cleavage of K63-linked tetraubiquitin (BRISC (FL)): inhibit
